Source: patent US20240148678A1, “SUSTAINED RELEASE INJECTABLE THERAPEUTIC FORMULATIONS USING APROTIC POLAR SOLVENTS” (Xeris Pharmaceuticals, Inc., priority 2022, published 2024)
Where “and” joins values, the source holds several entries; their conditions need not be identical. Equal values may be shown once.

Experiments:
[1] = cited from earlier work
[2] = Storage stability of levothyroxine in DMSO formulations; assay type: physicochemical; details: 5 mg/mL in DMSO without ionization stabilizing excipient; even in refrigeration
Experimental: These formulation studies are described in detail in U.S. Appl. No. 63/380,090, entitled “Stable Levothyroxine Formulations in Aprotic Polar Solvents,” filed on even day herewith, which is incorporated herein by reference in its entirety. […] The overall moisture content of the formulation was ˜5% when prepared using 1.0 N H2SO4. The moisture content of this formulation was due almost entirely to the added sulfuric acid (with a minor contribution from the trehalose dihydrate), which at 26 mM (from a 1.0 N (0.5 M) stock solution) results in a moisture content ˜5% (w/w). When prepared using concentrated acid (e.g., 10 N), the overall moisture content of the formulation could be reduced to about ˜1% without any significant impact on storage stability. Other exemplary formulations were prepared at a concentration of 5 mg/mL levothyroxine in DMSO that had been first acidified with about 13-15 mM sulfuric acid. These formulations were then used in levothyroxine pharmacokinetic pre-clinical studies using laboratory animals.

Structure (SMILES)	solubility in DMSO ([1]; DMSO)	solubility in aqueous/physiological environments ([1]; aqueous/physiological)	stability when solubilized directly in DMSO [2]
CCOc1ccccc1OCCN[C@H](C)Cc1ccc(OC)c(S(N)(=O)=O)c1 [Tamsulosin, tamsulosin]	100 mM and > 40 mg/ml	~10 mM and 4 mg/ml	–
N[C@@H](Cc1cc(I)c(Oc2cc(I)c(O)c(I)c2)c(I)c1)C(=O)O [levothyroxine]	–	–	discolor and form degradation products within one day of storage
